The results in this text go back to US20240425464A1, “Substituted Monohydrazides as Potent Antifungal Agents” (University of Kentucky Research Foundation, priority 2023, published 2024).

Experiment [1] concerns C. auris strain AR Bank #390 (L). Nature of the experiment: MIC determination by in vitro antifungal assay. The experiment is classed as cell-based, Candida auris. As to the method:
(§1) The antifungal agent amphotericin B (AmB) was purchased from VWR (Radnor PA, USA). AmB was dissolved in DMSO at a final concentration of 5 mg/mL and was stored at −20° C., protected from light. Candida albicans American Type Culture Collection (ATCC) 10231 (strain A), C. albicans ATCC 64124 (B), and C. albicans ATCC MYA-2876 (C) were obtained from Utah State University. C. albicans ATCC 90819 (D), C. albicans ATCC MYA-2310 (E), C. albicans ATCC MYA-1237 (F), C. albicans ATCC MYA-1003 (G), Candida glabrata ATCC 2001 (H), Candida krusei ATCC 6258 (I), Candida parapsilosis ATCC 22019 (J), Cryptococcus neoformans ATCC MYA-895 (M), Aspergillus terreus ATCC MYA-3633 (N), and Aspergillus flavus ATCC MYA-3631 (0) were obtained from the American Type Culture Collection (ATCC; Manassas, VA, USA). Aspergillus nidulans ATCC 38163 (P) was obtained from University of Kentucky. Clinically derived Aspergillus fumigatus NRRL 163 (Q), A. fumigatus NRRL 5109 (R), and A. fumigatus NRRL 6113 (S) were obtained from Northern Regional Research Laboratory (NRRL). Candida auris 384 (K), C. auris 390 (L), and fungal strains 381-400 (including 10 C. auris (AR Bank #381-390), 3 Candida duobushaemulonii (AR Bank #391, AR Bank #392, and AR Bank #394), 2 Candida haemulonii (AR Bank #393 and AR Bank #395), 1 Kodameae ohmeri (AR Bank #396), 1 C. krusei (AR Bank #397), 1 Candida lusitaniae (AR Bank #398), and 2 Saccharomyces cerevisiae strains (AR Bank #399 and AR Bank #400)) were part of a larger fungal library from the AR Bank maintained by the Centers for Disease Control and Prevention (CDC; Atlanta, GA, USA). Filamentous fungi and yeasts were cultivated at 35° C. in RPMI 1640 medium (with L-glutamine, without sodium bicarbonate, Sigma-Aldrich, St. Louis, MO) buffered to a pH of 7.0 with 0.165 M morpholinepropanesulfonic acid (MOPS) buffer (Sigma-Aldrich). For cytotoxicity assays, HepG2 and the mouse macrophage cell line J774A.1 were obtained from University of Kentucky. The human embryonic kidney cell line, HEK-293, was bought from the ATCC. Mammalian cells were grown in Dulbecco's Modified Eagle's Medium (DMEM) (from VWR) with 10% fetal bovine serum (FBS) (from VWR) and 1% Pen/Strep (from ATCC). Cell lines were cultured at 37° C. with 5% CO2 and passaged by trypsinization with 0.05% trypsin: 0.53 mM EDTA (from Sigma-Aldrich).
(§2) From the actively growing yeast culture, 100 µL were then transferred to 900 μL of RPMI 1640 medium and re-adjusted to achieve OD600 of 0.12 (˜1×10^6 CFU/mL). The cell suspension was further diluted to achieve 1:100 in RPMI 1640 medium.
(§3) Finally, the activity of these monohydrazides was explored against […] non-Candida strains: Cryptococcus neoformans ATCC MYA-895 (M), Aspergillus terreus ATCC MYA-3633 (N), Aspergillus flavus ATCC MYA-3631 (O), Aspergillus nidulans ATCC 38163 (P), Aspergillus fumigatus NRRL 163 (Q), A. fumigatus NRRL 5109 (R), and A. fumigatus NRRL 6113 (S) (Tables 1A and 1B). The double dilution method was used with concentrations ranging from 0.06 to 31.3 j·tg mL^−1 for monohydrazides 1a-9j, and the commercially available positive antifungal control amphotericin B (AmB).

Experiment [2] relates to Candida auris strain AR Bank #384 (K). In words: MIC determination by in vitro antifungal assay. In kind it is cell-based. The procedure: as §1, §2, §3
Where [3] appears, read: C. auris AR Bank # 390 (L) (Table 2B).
The mark [4] stands for this setting: strain L = C. auris AR Bank # 0390 (Tables 1A/1B).
[5] abbreviates: C. auris AR Bank # 384 (K) (Table 2B).
[6] abbreviates: strain K = C. auris AR Bank # 0384 (Tables 1A/1B).
[7] abbreviates: Candidozyma auris, strain L = C. auris AR Bank # 0390 (Tables 1A/1B), read-out: MIC.
[8] abbreviates: Candidozyma auris, strain K = C. auris AR Bank # 0384 (Tables 1A/1B), read-out: MIC.
[9] abbreviates: Candidozyma auris, C. auris AR Bank # 390 (L) (Table 2B), read-out: MIC.
The mark [10] stands for this setting: Candidozyma auris, C. auris AR Bank # 384 (K) (Table 2B), read-out: MIC.
The mark [11] stands for this setting: Candidozyma auris, C. auris AR Bank #390 (L), read-out: MIC.
[12] abbreviates: Candidozyma auris, C. auris AR Bank #384 (K), read-out: MIC.

≈ marks a conversion by molar mass, not a printed value. Like-named read-outs stand apart in the source and are kept apart here.

On to `O=C(NNc1ccc(Cl)cc1)c1cccc(F)n1` [Compound 5e], for which the MIC in experiment [1] (setting [3]) came to 7.8 μg/mL^−1; in experiment [1] (setting [4]), 7.8 μg/mL^−1; in experiment [2] (setting [5]), 3.9 μg/mL^−1; in experiment [2] (setting [6]), 3.9 μg/mL^−1.
For `COc1ccc(NNC(=O)c2cccc(F)n2)cc1` [Compound 5f], the MIC in experiment [1] (setting [7]) and in experiment [2] (setting [8]) was 1.95 µg/mL (≈ 7.46 µM) each time.
For the compound `O=C(NNc1ccc(F)cc1F)c1cccc(F)n1` [Compound 5g], the MIC in experiment [1] (setting [9]) is 3.9 µg/mL (≈ 14.6 µM); in experiment [1] (setting [7]), 3.9 µg/mL (≈ 14.6 µM); in experiment [2] (setting [10]), 3.9 µg/mL (≈ 14.6 µM); in experiment [2] (setting [8]) it was 7.8 µg/mL (≈ 29.2 µM).
As for `O=C(NNc1cccc(F)c1)c1cccc(Br)n1` [Compound 6a], the MIC in experiment [1] (setting [4]) was determined as 1.95 μg/mL^−1; in experiment [2] (setting [6]) it was 3.9 μg/mL^−1.
As to `O=C(NNc1ccc(F)cc1)c1cccc(Br)n1` [Compound 6d], the MIC in experiment [1] (setting [9]) worked out at 3.9 µg/mL (≈ 12.6 µM); in experiment [1] (setting [7]), 0.98 µg/mL (≈ 3.16 µM); in experiment [2] (setting [10]), 0.98 µg/mL (≈ 3.16 µM); in experiment [2] (setting [8]), 3.9 µg/mL (≈ 12.6 µM).
For `COc1ccc(NNC(=O)c2cccc(Br)n2)cc1` [Compound 6f], the MIC in experiment [1] (setting [7]) and in experiment [2] (setting [8]) was 1.95 µg/mL (≈ 6.05 µM) throughout.
In the case of `O=C(NNc1cccc(F)c1)c1ncc(F)cc1F` [Compound 7a], the MIC in experiment [1] (setting [4]) and in experiment [2] (setting [6]) was 1.95 μg/mL^−1 in each case.
Consider `COc1cccc(NNC(=O)c2ncc(F)cc2F)c1` [Compound 7c], for which the MIC in experiment [1] (setting [7]) was 15.6 µg/mL (≈ 55.9 µM); in experiment [2] (setting [8]) it was 7.8 µg/mL (≈ 27.9 µM).
For `O=C(NNc1ccc(F)cc1)c1ncc(F)cc1F` [Compound 7d], the MIC was determined as 3.9 µg/mL (≈ 14.6 µM) in experiment [1] (setting [9]), 0.98 µg/mL (≈ 3.67 µM) in experiment [1] (setting [7]), 0.49 µg/mL (≈ 1.83 µM) in experiment [2] (setting [10]) and 1.95 µg/mL (≈ 7.3 µM) in experiment [2] (setting [8]).
In the case of `O=C(NNc1ccc(Cl)cc1)c1ncc(F)cc1F` [Compound 7e], the MIC in experiment [1] (setting [3]) is reported as 7.8 μg/mL^−1; in experiment [1] (setting [4]) it was 7.8 μg/mL^−1; in experiment [2] (setting [5]), 7.9 μg/mL^−1; in experiment [2] (setting [6]), 3.9 μg/mL^−1.
`COc1ccc(NNC(=O)c2ncc(F)cc2F)cc1` [Compound 7f]: the MIC in experiment [1] (setting [9]) is 31.3 µg/mL (≈ 112 µM); in experiment [1] (setting [7]), 0.98 µg/mL (≈ 3.51 µM); in experiment [2] (setting [10]), 0.98 µg/mL (≈ 3.51 µM); in experiment [2] (setting [8]), 3.9 µg/mL (≈ 14 µM).
On to `O=C(NNc1ccc(F)cc1F)c1ncc(F)cc1F` [Compound 7g], for which the MIC in experiment [1] (setting [9]) is 7.8 µg/mL (≈ 27.3 µM); in experiment [1] (setting [7]) it was 1.95 µg/mL (≈ 6.84 µM); in experiment [2] (setting [10]), 0.98 µg/mL (≈ 3.44 µM); in experiment [2] (setting [8]), 7.8 µg/mL (≈ 27.3 µM).
For `O=C(NNc1cccc(F)c1)c1nc(F)ccc1F` [Compound 8a], the MIC in experiment [1] (setting [4]) and in experiment [2] (setting [6]) was 1.95 μg/mL^−1 each time.
Turning to `COc1cccc(NNC(=O)c2nc(F)ccc2F)c1` [Compound 8c], the MIC in experiment [1] (setting [7]) and in experiment [2] (setting [8]) was 15.6 µg/mL (≈ 55.9 µM) in each case.
For `O=C(NNc1ccc(F)cc1)c1nc(F)ccc1F` [Compound 8d], the MIC in experiment [1] (setting [9]) worked out at 1.95 µg/mL (≈ 7.3 µM); in experiment [1] (setting [7]), 0.98 µg/mL (≈ 3.67 µM); in experiment [2] (setting [10]), 0.49 µg/mL (≈ 1.83 µM); in experiment [2] (setting [8]), 1.95 µg/mL (≈ 7.3 µM).
As for `O=C(NNc1ccc(Cl)cc1)c1nc(F)ccc1F` [Compound 8e], the MIC in experiment [1] (setting [3]), in experiment [1] (setting [4]), in experiment [2] (setting [5]) and in experiment [2] (setting [6]) was 7.8 μg/mL^−1 each time.
For `COc1ccc(NNC(=O)c2nc(F)ccc2F)cc1` [Compound 8f], the MIC in experiment [1] (setting [9]) amounted to 31.3 µg/mL (≈ 112 µM); in experiment [1] (setting [7]) it was 0.98 µg/mL (≈ 3.51 µM); in experiment [2] (setting [10]), 0.98 µg/mL (≈ 3.51 µM); in experiment [2] (setting [8]), 3.9 µg/mL (≈ 14 µM).
`O=C(NNc1ccc(F)cc1F)c1nc(F)ccc1F` [Compound 8g]: the MIC in experiment [1] (setting [9]) worked out at 31.3 µg/mL (≈ 110 µM); in experiment [1] (setting [7]), 1.95 µg/mL (≈ 6.84 µM); in experiment [2] (setting [10]) it was 0.98 µg/mL (≈ 3.44 µM); in experiment [2] (setting [8]) it was 3.9 µg/mL (≈ 13.7 µM).
Take `O=C(NNc1cccc(F)c1)c1cnccn1` [Compound 9a]: the MIC in experiment [1] (setting [4]) and in experiment [2] (setting [6]) was 0.98 μg/mL^−1 throughout.
On to `O=C(NNc1cccc(Cl)c1)c1cnccn1` [Compound 9b], for which the MIC in experiment [1] (setting [11]) came out at 0.49 µg/mL (≈ 1.97 µM); in experiment [1] (setting [7]), 0.98 µg/mL (≈ 3.94 µM); in experiment [2] (setting [12]) it was 0.98 µg/mL (≈ 3.94 µM); in experiment [2] (setting [8]), 1.95 µg/mL (≈ 7.84 µM).
With `COc1cccc(NNC(=O)c2cnccn2)c1` [Compound 9c], the MIC in experiment [1] (setting [11]) is 0.98 µg/mL (≈ 4.01 µM); in experiment [1] (setting [7]), 0.98 µg/mL (≈ 4.01 µM); in experiment [2] (setting [12]), 1.95 µg/mL (≈ 7.98 µM); in experiment [2] (setting [8]), 1.95 µg/mL (≈ 7.98 µM).
`O=C(NNc1ccc(F)cc1)c1cnccn1` [Compound 9d]: the MIC in experiment [1] (setting [7]) was determined as 0.98 µg/mL (≈ 4.22 µM); in experiment [2] (setting [8]) it was 0.49 µg/mL (≈ 2.11 µM).
Consider `O=C(NNc1ccc(Cl)cc1)c1cnccn1` [Compound 9e], for which the MIC in experiment [1] (C. auris AR Bank #390 (L)) was 3.9 μg/mL^−1; in experiment [1] (setting [4]), 3.9 μg/mL^−1; in experiment [2] (C. auris AR Bank #384 (K)) it was 1.95 μg/mL^−1; in experiment [2] (setting [6]), 1.95 μg/mL^−1.
In the case of `COc1ccc(NNC(=O)c2cnccn2)cc1` [Compound 9f], the MIC in experiment [1] (setting [11]) turned out to be 0.98 µg/mL (≈ 4.01 µM); in experiment [1] (setting [7]), 0.49 µg/mL (≈ 2.01 µM); in experiment [2] (setting [12]), 0.98 µg/mL (≈ 4.01 µM); in experiment [2] (setting [8]), 0.49 µg/mL (≈ 2.01 µM).
In the case of `O=C(NNc1ccc(F)cc1F)c1cnccn1` [Compound 9g], the MIC in experiment [1] (setting [11]) is 0.98 µg/mL (≈ 3.92 µM); in experiment [1] (setting [7]) it was 0.98 µg/mL (≈ 3.92 µM); in experiment [2] (setting [12]), 3.9 µg/mL (≈ 15.6 µM); in experiment [2] (setting [8]), 3.9 µg/mL (≈ 15.6 µM).
As for `O=C(NNc1cc(F)ccc1F)c1cnccn1` [Compound 9h], the MIC worked out at 1.95 µg/mL (≈ 7.79 µM) in experiment [1] (setting [7]) and 0.49 µg/mL (≈ 1.96 µM) in experiment [2] (setting [8]).
In the case of `O=C(NNc1cc(F)cc(F)c1)c1cnccn1` [Compound 9i], the MIC in experiment [1] (setting [7]) worked out at 1.95 µg/mL (≈ 7.79 µM); in experiment [2] (setting [8]), 0.49 µg/mL (≈ 1.96 µM).
For `O=C(NNc1cc(Cl)cc(Cl)c1)c1cnccn1` [Compound 9j], in that order: 7.8 µg/mL (≈ 27.6 µM) and 15.6 µg/mL (≈ 55.1 µM).
